Test results reported in patent US8415351B2 (priority 2007, dated 2013).

Legend:
[1] = system: genotype 1b-Con1 subgenomic replicon cell line; test: microbe, parasite or virus in culture; format: cell-based, HCV; conditions: Hepatitis C virus, read-out: EC50 1b
[2] = system: genotype 1a-H77 subgenomic replicon cell line; test: microbe, parasite or virus in culture; format: cell-based, HCV; conditions: Hepatitis C virus, read-out: EC50 1a

SMILES | EC50 [1] [nM] | EC50 [2] [nM]
COc1c(/C=C/c2ccc(NS(C)(=O)=O)cc2C(=O)N2CCC2)cc(-n2ccc(=O)[nH]c2=O)cc1C(C)(C)C [IB-L1-1.22, N-(3-(azetidine-1-carbonyl)-4-{(E)-2-[3-tert-butyl-5-(2,4-dioxo-3,4-dihydro-2H-pyrimidin-1-yl)-2-methoxy-phenyl]-vinyl}-phenyl)-methanesulfonamide] | < 10 | 10 to 100
COc1c(-c2nc3cc(NS(C)(=O)=O)ccc3o2)cc(-n2ccc(=O)[nH]c2=O)cc1C(C)(C)C [IB-L0-2.6, N-(2-(3-tert-butyl-5-(2,4-dioxo-3,4-dihydropyrimidin-1(2H)-yl)-2-methoxyphenyl)benzo[d]oxazol-5-yl)methanesulfonamide] | 10 to 100 | 100 to 1000
CCC(C)(C)c1cc(-n2ccc(=O)[nH]c2=O)cc(-c2ccc3cc(NS(C)(=O)=O)ccc3c2)c1OC [IB-L0-2.52, N-(6-(5-(2,4-dioxo-3,4-dihydropyrimidin-1(2H)-yl)-2-methoxy-3-tert-pentylphenyl)naphthalen-2-yl)methanesulfonamide] | < 10 | 10 to 100
COc1c(-c2ccc3nc(NS(C)(=O)=O)ccc3c2)cc(-n2ccc(=O)[nH]c2=O)cc1C(C)(C)C [IB-L0-2.5, N-(6-(3-tert-butyl-5-(2,4-dioxo-3,4-dihydropyrimidin-1(2H)-yl)-2-methoxyphenyl)quinolin-2-yl)methanesulfonamide] | < 10 | 10 to 100
COc1c(/C=C/c2ccc(NS(C)(=O)=O)cc2C(=O)O)cc(-n2ccc(=O)[nH]c2=O)cc1C(C)(C)C [IB-L1-1.4, (E)-2-(3-tert-butyl-5-(2,4-dioxo-3,4-dihydropyrimidin-1(2H)-yl)-2-methoxystyryl)-5-(methylsulfonamido)benzoic acid] | < 10 | 10 to 100
COc1c(-c2ccc3cc(NS(C)(=O)=O)ccc3c2)cc(-n2ccc(=O)[nH]c2=O)cc1-c1ccco1 [IB-L0-2.59, N-(6-(5-(2,4-dioxo-3,4-dihydropyrimidin-1(2H)-yl)-3-(furan-2-yl)-2-methoxyphenyl)naphthalen-2-yl)methanesulfonamide] | 10 to 100 | 100 to 1000
COc1c(CCc2ccc(NS(C)(=O)=O)cc2)cc(N2CCC(=O)NC2=O)cc1C(C)(C)C [IA-L5-2-1.1, N-(4-(3-tert-butyl-5-(2,4-dioxotetrahydropyrimidin-1(2H)-yl)-2-methoxyphenethyl)phenyl)methanesulfonamide] | 10 to 100 | 100 to 1000
COc1c(Br)cc(-n2ccc(=O)[nH]c2=O)cc1/C=C/c1ccc(NS(C)(=O)=O)cc1 [IB-L1-1.52, (E)-N-(4-(3-bromo-5-(2,4-dioxo-3,4-dihydropyrimidin-1(2H)-yl)-2-methoxystyryl)phenyl)methanesulfonamide] | 100 to 1000 | > 1000
COc1c(/C=C/c2ccc(NS(C)(=O)=O)cc2NC(=O)OC(C)(C)C)cc(-n2ccc(=O)[nH]c2=O)cc1C(C)(C)C [IB-L1-1.32, (E)-tert-butyl 2-(3-tert-butyl-5-(2,4-dioxo-3,4-dihydropyrimidin-1(2H)-yl)-2-methoxystyryl)-5-(methylsulfonamido)phenylcarbamate] | 10 to 100 | 100 to 1000
COc1c(/C=C/c2ccc(NS(C)(=O)=O)cc2)cc(-n2ccc(=O)[nH]c2=O)cc1S(C)(=O)=O [IB-L1-1.49, (E)-N-(4-(5-(2,4-dioxo-3,4-dihydropyrimidin-1(2H)-yl)-2-methoxy-3-(methylsulfonyl)styryl)phenyl)methanesulfonamide] | > 1000 | > 1000
COc1c(I)cc(-n2ccc(=O)[nH]c2=O)cc1-c1ccc2cc(NS(C)(=O)=O)ccc2c1 [IB-L0-2.57, N-(6-(5-(2,4-dioxo-3,4-dihydropyrimidin-1(2H)-yl)-3-iodo-2-methoxyphenyl)naphthalen-2-yl)methanesulfonamide] | 10 to 100 | 100 to 1000
CO/N=C/c1cc(NS(C)(=O)=O)ccc1/C=C/c1cc(-n2ccc(=O)[nH]c2=O)cc(C(C)(C)C)c1OC [IB-L1-1.19] | < 10 | 10 to 100
COc1c(/C=C/c2ccc(NS(C)(=O)=O)cc2COC(C)C)cc(-n2ccc(=O)[nH]c2=O)cc1C(C)(C)C [IB-L1-1.25, N-(4-{(E)-2-[3-tert-butyl-5-(2,4-dioxo-3,4-dihydro-2H-pyrimidin-1-yl)-2-methoxy-phenyl]-vinyl}-3-isopropoxymethyl-phenyl)-methanesulfonamide] | < 10 | 10 to 100
COc1c(-c2nc3cc([N+](=O)[O-])ccc3o2)cc(N2CCC(=O)NC2=O)cc1C(C)(C)C [IA-L0-2.7, 1-(3-tert-butyl-4-methoxy-5-(5-nitrobenzo[d]oxazol-2-yl)phenyl) dihydropyrimidine-2,4(1H,3H)-dione] | 100 to 1000 | > 1000
COc1c(/C=C/c2ccc(NS(C)(=O)=O)c(F)c2)cc(N2CCC(=O)NC2=O)cc1C(C)(C)C [IA-L1-1.26, (E)-N-(4-(3-tert-butyl-5-(2,4-dioxotetrahydropyrimidin-1(2H)-yl)-2-methoxystyryl)-2-fluorophenyl)methanesulfonamide] | 10 to 100 | 10 to 100
COc1c(/C=C/c2ccc(NS(C)(=O)=O)cc2C(N)=O)cc(-n2ccc(=O)[nH]c2=O)cc1C(C)(C)C [IB-L1-1.21, 2-{(E)-2-[3-tert-butyl-5-(2,4-dioxo-3,4-dihydro-2H-pyrimidin-1-yl)-2-methoxy-phenyl]-vinyl}-5-methanesulfonylamino-benzamide] | < 10 | 10 to 100
COc1c(-c2ccc3c(c2)CNC3=O)cc(-n2ccc(=O)[nH]c2=O)cc1C(C)(C)C [IB-L0-2.30, 1-(3-tert-butyl-4-methoxy-5-(1-oxoisoindolin-5-yl)phenyl)-pyrimidine-2,4(1H,3H)-dione] | 10 to 100 | 100 to 1000
COc1c(CCc2ccc(NS(C)(=O)=O)cc2)cc(-n2ccc(=O)[nH]c2=O)cc1C(C)(C)C [IB-L5-2-1.2, N-(4-(3-tert-butyl-5-(2,4-dioxo-3,4-dihydropyrimidin-1(2H)-yl)-2-methoxyphenethyl)phenyl)methanesulfonamide] | 10 to 100 | 100 to 1000
CCOc1c(/C=C/c2ccc(NS(C)(=O)=O)cc2)cc(-n2ccc(=O)[nH]c2=O)cc1C(C)(C)C [IB-L1-1.30, (E)-N-(4-(3-tert-butyl-5-(2,4-dioxo-3,4-dihydropyrimidin-1(2H)-yl)-2-ethoxystyryl)phenyl)methanesulfonamide] | 10 to 100 | 100 to 1000
COc1c(/C=C(\F)c2ccc(NS(C)(=O)=O)cc2)cc(N2CCC(=O)NC2=O)cc1C(C)(C)C [IA-L1-1.4, (Z)—N-(4-(2-(3-tert-butyl-5-(2,4-dioxotetrahydropyrimidin-1(2H)-yl)-2-methoxyphenyl)-1-fluorovinyl)phenyl)methanesulfonamide] | < 10 | < 10
COC(=O)c1cc(NS(C)(=O)=O)ccc1CCc1cc(-n2ccc(=O)[nH]c2=O)cc(C(C)(C)C)c1OC [IB-L5-2-1.1, methyl 2-(3-tert-butyl-5-(2,4-dioxo-3,4-dihydropyrimidin-1(2H)-yl)-2-methoxyphenethyl)-5-(methylsulfonamido)benzoate] | < 10 | 10 to 100
COc1c(-c2ccc3cc(NS(C)(=O)=O)ccc3c2)cc(N2CCC(=O)NC2=O)cc1C(C)(C)C [IA-L0-2.9, N-(6-(3-tert-butyl-5-(2,4-dioxotetrahydropyrimidin-1(2H)-yl)-2-methoxyphenyl)naphthalen-2-yl)methanesulfonamide] | < 10 | < 10
